Assay results published in ChEMBL document CHEMBL1201862, “PubChem BioAssay data set” (2004).
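Growth conditions: 96-well plates. Treatment: test compound, 48 hours, 5 concentrations. Analysis: linear interpolation between bracketing concentrations; unreached endpoints set to highest concentration. GI50: concentration for 50% inhibition of growth.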 Calls of active or inactive are those of the source. No stated cut-off is given here; in the data, active = GI50 up to about 1.1 µM and inactive = higher.

Assays:
Assay in all cases: NCI anticancer screen, dose series, 48 h
ACHN = system: ACHN
CAKI-1 = system: CAKI-1
COLO 205 = system: COLO 205
HCC 2998 = system: HCC 2998
HCT-15 = system: HCT-15
HL-60 = system: HL-60
IGROV-1 = system: IGROV-1
KM12 = system: KM12
NCI-H23 = system: NCI-H23
NCI-H460 = system: NCI-H460
OVCAR-8 = system: OVCAR-8
RPMI-8226 = system: RPMI-8226
SF-268 = system: SF-268
SF-295 = system: SF-295
SK-MEL-28 = system: SK-MEL-28
SK-OV-3 = system: SK-OV-3
SNB-19 = system: SNB-19
SW-620 = system: SW-620
TK-10 = system: TK-10
UACC-62 = system: UACC-62

SMILES	GI50 (ACHN)	GI50 (CAKI-1)	GI50 (COLO 205)	GI50 (HCC 2998)	GI50 (HCT-15) [µM]	GI50 (HL-60)	GI50 (IGROV-1)	GI50 (KM12)	GI50 (NCI-H23)	GI50 (NCI-H460)	GI50 (OVCAR-8)	GI50 (RPMI-8226)	GI50 (SF-268)	GI50 (SF-295)	GI50 (SK-MEL-28)	GI50 (SK-OV-3)	GI50 (SNB-19)	GI50 (SW-620)	GI50 (TK-10)	GI50 (UACC-62)
[O-]c1c2c(nn1-c1ccc(F)cc1)c1ccccc1c[n+]2Cc1ccccc1	1.77 µM (inactive)	18.8 µM (inactive)	1.76 µM (inactive)	11.7 µM (inactive)	0.581	0.327 µM (active)	11.1 µM (inactive)	1.43 µM (inactive)	16.3 µM (inactive)	10.5 µM (inactive)	12.8 µM (inactive)	3.34 µM (inactive)	18.9 µM (inactive)	14.6 µM (inactive)	15.3 µM (inactive)	14.6 µM (inactive)	30.8 µM (inactive)	14.8 µM (inactive)	24.6 µM (inactive)	2 µM (inactive)
O=[N+]([O-])c1ccc(-c2ccc(-c3csc(Nc4ccccn4)n3)o2)cc1	45.8 µM (inactive)	> 100 µM (inactive)	> 100 µM (inactive)	> 100 µM (inactive)	79.8	> 100 µM (inactive)	> 100 µM (inactive)	49.5 µM (inactive)	> 10 µM (inactive)	> 10 µM (inactive)	64.7 µM (inactive)	> 100 µM (inactive)	19.7 µM (inactive)	46.3 µM (inactive)	95.7 µM (inactive)	14.3 µM (inactive)	20.2 µM (inactive)	> 100 µM (inactive)	26.9 µM (inactive)	29.9 µM (inactive)
Cc1nn(C(=O)Cc2ccccc2)c2c1C(c1ccc3ccccc3c1O)SC(=N)N2 (stereo not given)	> 100 µM (inactive)	> 100 µM (inactive)	> 100 µM (inactive)	> 100 µM (inactive)	> 100	39.6 µM (inactive)	> 100 µM (inactive)	> 100 µM (inactive)	> 100 µM (inactive)	> 100 µM (inactive)	> 100 µM (inactive)	76.2 µM (inactive)	> 100 µM (inactive)	> 100 µM (inactive)	> 100 µM (inactive)	> 100 µM (inactive)	> 100 µM (inactive)	> 100 µM (inactive)	> 100 µM (inactive)	> 100 µM (inactive)
